Measurements as given in patent US20250035641A1, “COMPOSITIONS AND METHODS RELATED TO PROTEIN LABELING” (The Chinese University of Hong Kong, priority 2023, published 2025).

Assays:
[1] = target: T1, HTN-BRD4 (Homo sapiens, UniProt O60885); test: Pulse-chase assay (HTN-BRD4 engagement in cells); format: cell-based; conditions: 5 μM, within 15 mins treatment, HEK293T HTN-BRD4:fOGT 20:1
T1 construct: HaloTag fragment; expressed in transfected cells; host or cells: HEK293T
Procedure: For HTN-BRD4, as the OGTAC-1 to 3 were designed to be irreversibly linked to it, we developed a pulse-chase assay. […] All of three OGTACs efficiently reached HTN-BRD4, fully occupied the protein within 4 h. OGTAC 1 ranked first among three OGTACs, achieving […] 90% engagement within 15 mins treatment.
1×10^5 HEK293T cells were seeded in each well of 12 well plate. After cells attached, transfection reagents and plasmids were prepared and added in DMEM. After 24 h transfection, media were replaced by fresh warm complete media with DMSO or compounds. After certain time of OGTACs treatment, media in wells were replaced by fresh warm media with 5 μM rhodamine ligand. The cells were incubated in 37° C.′ for 15 mins. Then, media were aspirated and 100 μL IP lysis buffer (Thermo Scientific 87788) supplemented with 20 μM OGA inhibitor (Thiamet G, Bidepharm BD571819) and 100X protease inhibitor (MedChemExpress. HY-K0010) (referred as complete IP lysis buffer in the later paragraph) was added to each well. The lysate was incubated on ice for 20 min, spun down at 14,000 RPM at 4° C. for 15 mins, and the supernatant were collected for bicinchoninic acid (BCA) assay and normalized to a final 2 mg/mL. […] After running, in gel fluorescence at rhodamine channel (545/575 nm) was analysed by Bio-Rad ChemiDoc MP Imaging System. […]

[2] = target: HTN-CK2α (Homo sapiens, UniProt P68400); test: O-GlcNAcylation of HTN-CK2α with 0tfOGT; format: cell-based; design: 0TPR(463-1046)-; expressed in transfected cells; conditions: vs negative control OGTAC-1H
Chain of HTN-CK2α (P68400 with tags, fused parts or gaps): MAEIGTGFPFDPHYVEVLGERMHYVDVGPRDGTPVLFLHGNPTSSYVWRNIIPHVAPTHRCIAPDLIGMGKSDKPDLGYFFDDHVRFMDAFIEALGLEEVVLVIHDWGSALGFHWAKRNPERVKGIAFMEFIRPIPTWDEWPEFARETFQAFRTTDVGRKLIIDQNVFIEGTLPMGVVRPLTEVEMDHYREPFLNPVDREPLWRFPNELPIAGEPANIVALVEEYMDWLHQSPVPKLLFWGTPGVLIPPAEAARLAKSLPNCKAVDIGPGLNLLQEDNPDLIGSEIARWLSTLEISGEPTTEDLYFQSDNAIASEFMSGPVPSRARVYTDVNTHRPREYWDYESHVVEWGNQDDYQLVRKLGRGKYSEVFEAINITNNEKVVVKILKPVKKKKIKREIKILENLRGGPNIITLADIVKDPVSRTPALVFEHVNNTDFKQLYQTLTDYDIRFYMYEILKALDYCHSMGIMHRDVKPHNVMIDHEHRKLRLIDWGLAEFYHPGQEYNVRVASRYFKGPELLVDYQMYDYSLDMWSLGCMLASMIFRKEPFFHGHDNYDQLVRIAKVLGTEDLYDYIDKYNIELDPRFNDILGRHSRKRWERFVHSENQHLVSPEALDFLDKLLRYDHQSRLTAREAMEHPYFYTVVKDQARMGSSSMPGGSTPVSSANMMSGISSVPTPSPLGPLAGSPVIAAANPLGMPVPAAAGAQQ
Chain of HTN-CK2α (P62942+O15294 fused P62942:F37V partner): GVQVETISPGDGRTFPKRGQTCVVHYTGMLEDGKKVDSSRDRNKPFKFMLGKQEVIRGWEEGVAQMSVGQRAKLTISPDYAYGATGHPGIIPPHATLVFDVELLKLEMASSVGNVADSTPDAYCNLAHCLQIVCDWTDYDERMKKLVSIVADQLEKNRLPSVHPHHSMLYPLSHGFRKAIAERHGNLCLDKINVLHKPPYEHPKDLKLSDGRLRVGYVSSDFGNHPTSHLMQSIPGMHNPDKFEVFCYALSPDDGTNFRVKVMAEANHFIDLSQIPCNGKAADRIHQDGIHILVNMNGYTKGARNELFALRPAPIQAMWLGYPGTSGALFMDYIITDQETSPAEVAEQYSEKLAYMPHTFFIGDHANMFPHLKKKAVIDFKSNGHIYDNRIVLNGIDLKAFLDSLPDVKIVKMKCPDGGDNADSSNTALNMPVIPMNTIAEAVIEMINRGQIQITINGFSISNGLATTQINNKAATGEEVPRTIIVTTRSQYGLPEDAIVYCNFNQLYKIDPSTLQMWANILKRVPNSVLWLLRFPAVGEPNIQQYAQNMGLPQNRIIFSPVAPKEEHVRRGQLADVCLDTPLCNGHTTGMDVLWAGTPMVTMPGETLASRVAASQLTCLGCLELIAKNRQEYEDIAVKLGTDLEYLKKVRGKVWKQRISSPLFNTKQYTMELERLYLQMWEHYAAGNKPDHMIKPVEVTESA
Procedure: FIGS. 18A and 18B: Immunoblotting analysis of the global O-GlcNAcylation inducing effect of truncated OGTAC-4 and OGTAC-1 on HTN-BRD4 and HTN-CK2α respectively. (A), O-GlcNAcylation inducing effect of OGTAC-4 is dependent on the expression of 0tfOGT. […] The quantification was conducted by immunoblot signal of probe treatment/control as the mean±s.e.m. of n=2 biologically independent experiments. TR, transfection reagent.

CC[C@H](C(=O)N1CCCC[C@H]1C(=O)O[C@H](CCc1ccc(OC)c(OC)c1)c1cccc(OCC(=O)NCCOCCOCCCCCCCl)c1)c1cc(OC)c(OC)c(OC)c1 [OGTAC-1, (R)-1-(3-(2-((2-(2-((6-chlorohexyl)oxy)ethoxy)ethyl)amino)-2-oxoethoxy)phenyl)-3-(3,4-dimethoxyphenyl)propyl (S)-1-((S)-2-(3,4,5-trimethoxyphenyl)butanoyl) piperidine-2-carboxylate]
engagement of HTN-BRD4 [1]: 90%
O-GlcNAcylation level of HTN-CK2α with 0tfOGT [2]: higher O-GlcNAcylation level
